From ChEMBL document CHEMBL1817541, “Synthesis and Evaluation of the α-D-/α-L-Rhamnosyl and Amicetosyl Digitoxigenin Oligomers as Anti-tumor Agents” (ACS Med Chem Lett, 2011)

Assays:
Assay type in all cases: functional
OVCAR-3 = assay: Cytotoxicity against human OVCAR3 cells after 48 hrs by sulforhodamine B assay; settings: OVCAR-3, 48 h
A498 = assay: Cytotoxicity against human A498 cells after 48 hrs by sulforhodamine B assay; settings: A498, 48 h
SF-539 = assay: Cytotoxicity against human SF539 cells after 48 hrs by sulforhodamine B assay; settings: SF-539, 48 h
MDA-MB-231 = assay: Cytotoxicity against human MDA-MB-231 cells after 48 hrs by sulforhodamine B assay; settings: MDA-MB-231, 48 h
SK-MEL-5 = assay: Cytotoxicity against human SK-MEL-5 cells after 48 hrs by sulforhodamine B assay; settings: SK-MEL-5, 48 h
NCI-H460 [1] = assay: Cytotoxicity against human NCI-H460 cell assessed as cell death at 500 nM after 12 hrs by Hoechst 33342/propidium iodide staining based fluorescence microscopy
Hs-578T = assay: Cytotoxicity against human Hs578T cells after 48 hrs by sulforhodamine B assay
HCT-15 = assay: Cytotoxicity against human HCT15 cells after 48 hrs by sulforhodamine B assay; settings: HCT-15, 48 h
EKVX = assay: Cytotoxicity against human EKVX cells after 48 hrs by sulforhodamine B assay
PC-3 = assay: Cytotoxicity against human PC3 cells after 48 hrs by sulforhodamine B assay; settings: PC-3, 48 h
SR = assay: Cytotoxicity against human SR cells after 48 hrs by sulforhodamine B assay
NCI-H460 [2] = assay: Cytotoxicity against human NCI-H460 cell assessed as cell death at 1 uM after 12 hrs by Hoechst 33342/propidium iodide staining based fluorescence microscopy
NCI-H460 [3] = assay: Cytotoxicity against human NCI-H460 cell assessed as cell death at 100 nM after 12 hrs by Hoechst 33342/propidium iodide staining based fluorescence microscopy
SF-295 = assay: Cytotoxicity against human SF295 cells after 48 hrs by sulforhodamine B assay; settings: SF-295, 48 h
NCI-H460 [4] = assay: Cytotoxicity against human NCI-H460 cell assessed as cell death after 12 hrs by Hoechst 33342/propidium iodide staining based fluorescence microscopy; settings: NCI-H460, 12 h
HOP-62 = assay: Cytotoxicity against human HOP62 cells after 48 hrs by sulforhodamine B assay; settings: HOP-62, 48 h
NCI-H522 = assay: Cytotoxicity against human NCI-H522 cells after 48 hrs by sulforhodamine B assay; settings: NCI-H522, 48 h
SK-OV-3 = assay: Cytotoxicity against human SKOV3 cells after 48 hrs by sulforhodamine B assay; settings: SK-OV-3, 48 h
M14 = assay: Cytotoxicity against human M14 cells after 48 hrs by sulforhodamine B assay; settings: M14, 48 h
HT-29 = assay: Cytotoxicity against human HT-29 cells after 48 hrs by sulforhodamine B assay; settings: HT-29, 48 h
HOP-92 = assay: Cytotoxicity against human HOP92 cells after 48 hrs by sulforhodamine B assay; settings: HOP-92, 48 h
DU-145 = assay: Cytotoxicity against human DU145 cells after 48 hrs by sulforhodamine B assay; settings: DU-145, 48 h
SNB-75 = assay: Cytotoxicity against human SNB75 cells after 48 hrs by sulforhodamine B assay; settings: SNB-75, 48 h
COLO 205 = assay: Cytotoxicity against human COLO205 cells after 48 hrs by sulforhodamine B assay; settings: COLO 205, 48 h
786-0 = assay: Cytotoxicity against human 786-0 cells after 48 hrs by sulforhodamine B assay; settings: 786-0, 48 h
MCF7 = assay: Cytotoxicity against human MCF7 cells after 48 hrs by sulforhodamine B assay; settings: MCF7, 48 h
SW-620 = assay: Cytotoxicity against human SW620 cells after 48 hrs by sulforhodamine B assay; settings: SW-620, 48 h
UO-31 = assay: Cytotoxicity against human UO31 cells after 48 hrs by sulforhodamine B assay; settings: UO-31, 48 h
SK-MEL-28 = assay: Cytotoxicity against human SK-MEL-28 cells after 48 hrs by sulforhodamine B assay; settings: SK-MEL-28, 48 h
SNB-19 = assay: Cytotoxicity against human SNB19 cells after 48 hrs by sulforhodamine B assay; settings: SNB-19, 48 h
NCI-H460 [5] = assay: Cytotoxicity against human NCI-H460 cell assessed as cell death at 50 nM after 12 hrs by Hoechst 33342/propidium iodide staining based fluorescence microscopy
NCI-H460 [6] = assay: Cytotoxicity against human NCI-H460 cell assessed as cell death at 10 nM after 12 hrs by Hoechst 33342/propidium iodide staining based fluorescence microscopy
RPMI-8226 = assay: Cytotoxicity against human RPMI8226 cells after 48 hrs by sulforhodamine B assay; settings: RPMI-8226, 48 h
NCI-H322M = assay: Cytotoxicity against human NCI-H322M cells after 48 hrs by sulforhodamine B assay
KM12 = assay: Cytotoxicity against human KM12 cells after 48 hrs by sulforhodamine B assay; settings: KM12, 48 h
NCI-H460 [7] = assay: Cytotoxicity against human NCI-H460 cells in serum free medium assessed as cell death at 10 uM after 12 hrs by Hoechst 33342/propidium iodide staining based fluorescence microscopy
OVCAR-4 = assay: Cytotoxicity against human OVCAR4 cells after 48 hrs by sulforhodamine B assay; settings: OVCAR-4, 48 h
ACHN = assay: Cytotoxicity against human ACHN cells after 48 hrs by sulforhodamine B assay
SF-268 = assay: Cytotoxicity against human SF268 cells after 48 hrs by sulforhodamine B assay; settings: SF-268, 48 h
Malme-3M = assay: Cytotoxicity against human MALME-3M cells after 48 hrs by sulforhodamine B assay
UACC-62 = assay: Cytotoxicity against human UACC62 cells after 48 hrs by sulforhodamine B assay; settings: UACC-62, 48 h
MDA-MB-435 = assay: Cytotoxicity against human MDA-MB-435 cells after 48 hrs by sulforhodamine B assay; settings: MDA-MB-435, 48 h
NCI-H460 [8] = assay: Induction of apoptosis in human NCI-H460 cells in at 50 nM after 12 hrs by Hoechst 33342/propidium iodide staining based fluorescence microscopy
TK-10 = assay: Cytotoxicity against human TK10 cells after 48 hrs by sulforhodamine B assay; settings: TK-10, 48 h
SN12C = assay: Cytotoxicity against human SN12C cells after 48 hrs by sulforhodamine B assay
MOLT-4 = assay: Cytotoxicity against human MOLT4 cells after 48 hrs by sulforhodamine B assay; settings: MOLT-4, 48 h
OVCAR-8 = assay: Cytotoxicity against human OVCAR8 cells after 48 hrs by sulforhodamine B assay; settings: OVCAR-8, 48 h
LOX IMVI = assay: Cytotoxicity against human LOXIMVI cells after 48 hrs by sulforhodamine B assay
NCI-H460 [9] = assay: Cytotoxicity against human NCI-H460 cells after 48 hrs by sulforhodamine B assay; settings: NCI-H460, 48 h
UACC-257 = assay: Cytotoxicity against human UACC257 cells after 48 hrs by sulforhodamine B assay; settings: UACC-257, 48 h
NCI-H226 = assay: Cytotoxicity against human NCI-H226 cells after 48 hrs by sulforhodamine B assay; settings: NCI-H226, 48 h
T47D = assay: Cytotoxicity against human T47D cells after 48 hrs by sulforhodamine B assay
NCI-H23 = assay: Cytotoxicity against human NCI-H23 cells after 48 hrs by sulforhodamine B assay; settings: NCI-H23, 48 h
U-251 = assay: Cytotoxicity against human U251 cells after 48 hrs by sulforhodamine B assay; settings: U-251, 48 h
NCI-H460 [10] = assay: Cytotoxicity against human NCI-H460 cell assessed as cell death at 100 uM after 12 hrs by Hoechst 33342/propidium iodide staining based fluorescence microscopy
A549 = assay: Cytotoxicity against human A549 cells after 48 hrs by sulforhodamine B assay; settings: A549, 48 h

C[C@@H]1O[C@@H](O[C@H]2CC[C@@]3(C)[C@H](CC[C@@H]4[C@@H]3CC[C@]3(C)[C@@H](C5=CC(=O)OC5)CC[C@]43O)C2)CC[C@H]1O [RAMNODIGIN]
GI50 (OVCAR-3): 4.94 nM | GI50 (A498): 20.7 nM | GI50 (SF-539): 7.8 nM | GI50 (MDA-MB-231): 33.9 nM | GI50 (SK-MEL-5): 5.44 nM | Activity (NCI-H460 [1]): 100% | GI50 (Hs-578T): 4.57 nM | GI50 (HCT-15): 20.5 nM | GI50 (EKVX): 5.13 nM | GI50 (PC-3): 9.55 nM | GI50 (SR): 2.25 nM | Activity (NCI-H460 [2]): 100% | Activity (NCI-H460 [3]): 87.28% | GI50 (SF-295): 10.4 nM | IC50 (NCI-H460 [4]): 48 nM | GI50 (HOP-62): 8.55 nM | GI50 (NCI-H522): 9.38 nM | GI50 (SK-OV-3): 22.2 nM | GI50 (M14): 19.3 nM | GI50 (HT-29): 11.9 nM | GI50 (HOP-92): 11.3 nM | GI50 (DU-145): 3.45 nM | GI50 (SNB-75): 14.9 nM | GI50 (COLO 205): 29.6 nM | GI50 (786-0): 6.21 nM | GI50 (MCF7): 5.89 nM | GI50 (SW-620): 11.1 nM | GI50 (UO-31): 5.15 nM | GI50 (SK-MEL-28): 23.1 nM | GI50 (SNB-19): 37.5 nM | Activity (NCI-H460 [5]): 53.65% | Activity (NCI-H460 [6]): 15.1% | GI50 (RPMI-8226): 23.5 nM | GI50 (NCI-H322M): 7.78 nM | GI50 (KM12): 32.4 nM | Activity (NCI-H460 [7]): 100% | GI50 (OVCAR-4): 18.9 nM | GI50 (ACHN): 4.31 nM | GI50 (SF-268): 4.28 nM | GI50 (Malme-3M): 18.3 nM | GI50 (UACC-62): 12.7 nM | GI50 (MDA-MB-435): 27.7 nM | Activity (NCI-H460 [8]): 45.71% | GI50 (TK-10): 3.75 nM | GI50 (SN12C): 3.61 nM | GI50 (MOLT-4): 2.57 nM | GI50 (OVCAR-8): 2.5 nM | GI50 (LOX IMVI): 11.8 nM | GI50 (NCI-H460 [9]): 3.83 nM | GI50 (UACC-257): 19.6 nM | GI50 (NCI-H226): 19.3 nM | GI50 (T47D): 21 nM | GI50 (NCI-H23): 4.13 nM | GI50 (U-251): 2.57 nM | Activity (NCI-H460 [10]): 100% | GI50 (A549): 1.56 nM

C[C@H]1O[C@H](O[C@H]2CC[C@@]3(C)[C@H](CC[C@@H]4[C@@H]3CC[C@]3(C)[C@@H](C5=CC(=O)OC5)CC[C@]43O)C2)CC[C@@H]1O
GI50 (OVCAR-3): 47.8 nM | GI50 (A498): 131 nM | GI50 (SF-539): 43.8 nM | GI50 (MDA-MB-231): 392 nM | GI50 (SK-MEL-5): 37.1 nM | Activity (NCI-H460 [1]): 58.34% | GI50 (Hs-578T): 26.1 nM | GI50 (HCT-15): 116 nM | GI50 (EKVX): 62.1 nM | GI50 (PC-3): 101 nM | GI50 (SR): 79.5 nM | Activity (NCI-H460 [2]): 89.05% | Activity (NCI-H460 [3]): 24.88% | GI50 (SF-295): 71.6 nM | IC50 (NCI-H460 [4]): 387 nM | GI50 (HOP-62): 56.4 nM | GI50 (NCI-H522): 40.8 nM | GI50 (SK-OV-3): 194 nM | GI50 (M14): 156 nM | GI50 (HT-29): 97 nM | GI50 (HOP-92): 128 nM | GI50 (DU-145): 30.5 nM | GI50 (SNB-75): 99 nM | GI50 (COLO 205): 348 nM | GI50 (786-0): 58.2 nM | GI50 (MCF7): 79.3 nM | GI50 (SW-620): 52.6 nM | GI50 (UO-31): 57 nM | GI50 (SK-MEL-28): 186 nM | GI50 (SNB-19): 315 nM | Activity (NCI-H460 [5]): 19.63% | Activity (NCI-H460 [6]): 16.63% | GI50 (RPMI-8226): 117 nM | GI50 (NCI-H322M): 106 nM | GI50 (KM12): 228 nM | Activity (NCI-H460 [7]): 100% | GI50 (OVCAR-4): 191 nM | GI50 (ACHN): 34.8 nM | GI50 (SF-268): 37.8 nM | GI50 (Malme-3M): 182 nM | GI50 (UACC-62): 168 nM | GI50 (MDA-MB-435): 115 nM | Activity (NCI-H460 [8]): 15.33% | GI50 (TK-10): 46.3 nM | GI50 (SN12C): 40.9 nM | GI50 (MOLT-4): 35.3 nM | GI50 (OVCAR-8): 76.7 nM | GI50 (LOX IMVI): 60.6 nM | GI50 (NCI-H460 [9]): 35.1 nM | GI50 (UACC-257): 157 nM | GI50 (NCI-H226): 168 nM | GI50 (T47D): 409 nM | GI50 (NCI-H23): 42.7 nM | GI50 (U-251): 35.3 nM | Activity (NCI-H460 [10]): 100% | GI50 (A549): 30.6 nM
